Results: patent US20230270755A1, “COMBINATION OF MEDICATIONS IN A PARENTERAL DOSAGE FORM FOR LONG-TERM ANAESTHESIA” (PHARMAFINA ILAC SATIS VE PAZARLAMA ANONIM SIRKETI, priority 2020, published 2023)

Experiments:
[1] = administered intravenously, cited from earlier work
[2] = Ropivacaine pharmacokinetics and duration of effect (literature review); type: in vivo; details: single dose; additional doses required for longer action
Procedure: Ropivacaine is preferably used as the hydrochloride salt and S-enantiomer thereof for acute pain management and surgical anesthesia. […] Therefore, ropivacaine loses its sensible effect within about 4 hours and additional doses are required for a longer action.

What does the source list for `CCCN1CCCC[C@H]1C(=O)Nc1c(C)cccc1C` [Ropivacaine]?
mean half-life of the initial phase [1]: 14 min; mean absorption t1/2 of the slower phase ([1]; slower phase): approximately 4.2 hours; time within which sensible effect is lost [2]: ≤ 4 h
